Reference: PubChem BioAssay (NCI)
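Five concentrations, 48 hours, 96-well plates. TGI: total growth inhibition.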

Key:
Assay in all cases: NCI-60 cell line screen, 48 h
786-0 renal = system: 786-0 renal
SNB-78 CNS = system: SNB-78 CNS
SK-MEL-5 melanoma = system: SK-MEL-5 melanoma
HCT-15 colon = system: HCT-15 colon
SW-620 colon = system: SW-620 colon
MOLT-4 leukemia = system: MOLT-4 leukemia
A549 NSCLC = system: A549 NSCLC
IGROV1 ovarian = system: IGROV1 ovarian
CAKI-1 renal = system: CAKI-1 renal
MALME-3M melanoma = system: MALME-3M melanoma
DLD-1 colon = system: DLD-1 colon
SF-295 CNS = system: SF-295 CNS
SF-539 CNS = system: SF-539 CNS
M14 melanoma = system: M14 melanoma
TK-10 renal = system: TK-10 renal
DMS 114 small cell lung = system: DMS 114 small cell lung
HOP-62 NSCLC = system: HOP-62 NSCLC
OVCAR-8 ovarian = system: OVCAR-8 ovarian
CCRF-CEM leukemia = system: CCRF-CEM leukemia
HL-60(TB) leukemia = system: HL-60(TB) leukemia
UO-31 renal = system: UO-31 renal
M19-MEL melanoma = system: M19-MEL melanoma
A498 renal = system: A498 renal
RXF 393 renal = system: RXF 393 renal
SK-MEL-28 melanoma = system: SK-MEL-28 melanoma
K-562 leukemia = system: K-562 leukemia
HCT-116 colon = system: HCT-116 colon
KM20L2 colon = system: KM20L2 colon
HT29 colon = system: HT29 colon
LXFL 529 NSCLC = system: LXFL 529 NSCLC
OVCAR-3 ovarian = system: OVCAR-3 ovarian
COLO 205 colon = system: COLO 205 colon
NCI-H522 lung = system: NCI-H522 lung
ACHN renal = system: ACHN renal
OVCAR-5 ovarian = system: OVCAR-5 ovarian
HOP-18 NSCLC = system: HOP-18 NSCLC
SNB-75 CNS = system: SNB-75 CNS
UACC-62 melanoma = system: UACC-62 melanoma
UACC-257 melanoma = system: UACC-257 melanoma
OVCAR-4 ovarian = system: OVCAR-4 ovarian
LOX IMVI melanoma = system: LOX IMVI melanoma
HCC-2998 colon = system: HCC-2998 colon
RPMI-8226 leukemia = system: RPMI-8226 leukemia
NCI-H460 lung = system: NCI-H460 lung
DMS 273 small cell lung = system: DMS 273 small cell lung
SF-268 CNS = system: SF-268 CNS
NCI-H226 lung = system: NCI-H226 lung
NCI-H23 lung = system: NCI-H23 lung
U251 CNS = system: U251 CNS
SNB-19 CNS = system: SNB-19 CNS
SK-OV-3 ovarian = system: SK-OV-3 ovarian
SN12C renal = system: SN12C renal
KM12 colon = system: KM12 colon
SK-MEL-2 melanoma = system: SK-MEL-2 melanoma
SR leukemia = system: SR leukemia
EKVX NSCLC = system: EKVX NSCLC
XF 498 CNS = system: XF 498 CNS
HOP-92 NSCLC = system: HOP-92 NSCLC

## CCOc1ccccc1NC(=O)CSc1nnc(Cc2ccccc2)o1
786-0 renal
  TGI: 44.8 µM
SNB-78 CNS
  TGI: > 100 µM
SK-MEL-5 melanoma
  TGI: 38.8 µM
HCT-15 colon
  TGI: 35.1 µM
SW-620 colon
  TGI: 37.2 µM
MOLT-4 leukemia
  TGI: 71.3 µM
A549 NSCLC
  TGI: > 100 µM
IGROV1 ovarian
  TGI: > 100 µM
CAKI-1 renal
  TGI: 37.6 µM
MALME-3M melanoma
  TGI: 33.8 µM
DLD-1 colon
  TGI: 55.4 µM
SF-295 CNS
  TGI: > 100 µM
SF-539 CNS
  TGI: 53.5 µM
M14 melanoma
  TGI: 66.5 µM
TK-10 renal
  TGI: > 100 µM
DMS 114 small cell lung
  TGI: 32.4 µM
HOP-62 NSCLC
  TGI: > 100 µM
OVCAR-8 ovarian
  TGI: 54.8 µM
CCRF-CEM leukemia
  TGI: > 100 µM
HL-60(TB) leukemia
  TGI: > 100 µM
UO-31 renal
  TGI: 52 µM
M19-MEL melanoma
  TGI: > 100 µM
A498 renal
  TGI: > 100 µM
RXF 393 renal
  TGI: 55.3 µM
SK-MEL-28 melanoma
  TGI: > 100 µM
K-562 leukemia
  TGI: > 100 µM
HCT-116 colon
  TGI: 84.5 µM
KM20L2 colon
  TGI: > 100 µM
HT29 colon
  TGI: > 100 µM
LXFL 529 NSCLC
  TGI: 32.1 µM
OVCAR-3 ovarian
  TGI: 32.7 µM
COLO 205 colon
  TGI: 36.5 µM
NCI-H522 lung
  TGI: 40.7 µM
ACHN renal
  TGI: 46.3 µM
OVCAR-5 ovarian
  TGI: > 100 µM
HOP-18 NSCLC
  TGI: 54.7 µM
SNB-75 CNS
  TGI: > 100 µM
UACC-62 melanoma
  TGI: 52.6 µM
UACC-257 melanoma
  TGI: 98.6 µM
OVCAR-4 ovarian
  TGI: 63.5 µM
LOX IMVI melanoma
  TGI: 40 µM
HCC-2998 colon
  TGI: > 100 µM
RPMI-8226 leukemia
  TGI: > 100 µM
NCI-H460 lung
  TGI: 44.8 µM
DMS 273 small cell lung
  TGI: 60.2 µM
SF-268 CNS
  TGI: 64.4 µM
NCI-H226 lung
  TGI: 57.5 µM
NCI-H23 lung
  TGI: 52.1 µM
U251 CNS
  TGI: 41 µM
SNB-19 CNS
  TGI: 48.7 µM
SK-OV-3 ovarian
  TGI: > 100 µM
SN12C renal
  TGI: 64.9 µM
KM12 colon
  TGI: > 100 µM
SK-MEL-2 melanoma
  TGI: 63 µM

## CC1(OCc2ccccc2)C(=O)N2C1N(C(=O)OCc1ccccc1)CC2(C)C (centres undefined)
786-0 renal
  TGI: > 100 µM
SK-MEL-5 melanoma
  TGI: 33.5 µM
SR leukemia
  TGI: 95 µM
HCT-15 colon
  TGI: > 100 µM
SW-620 colon
  TGI: > 100 µM
MOLT-4 leukemia
  TGI: 77.4 µM
A549 NSCLC
  TGI: > 100 µM
IGROV1 ovarian
  TGI: > 100 µM
MALME-3M melanoma
  TGI: > 100 µM
DLD-1 colon
  TGI: > 100 µM
SF-295 CNS
  TGI: > 100 µM
SF-539 CNS
  TGI: > 100 µM
M14 melanoma
  TGI: > 100 µM
TK-10 renal
  TGI: > 100 µM
DMS 114 small cell lung
  TGI: > 100 µM
HOP-62 NSCLC
  TGI: > 100 µM
OVCAR-8 ovarian
  TGI: > 100 µM
CCRF-CEM leukemia
  TGI: > 100 µM
HL-60(TB) leukemia
  TGI: 90.5 µM
UO-31 renal
  TGI: > 100 µM
M19-MEL melanoma
  TGI: > 100 µM
A498 renal
  TGI: > 100 µM
RXF 393 renal
  TGI: > 100 µM
SK-MEL-28 melanoma
  TGI: > 100 µM
K-562 leukemia
  TGI: > 100 µM
HCT-116 colon
  TGI: > 100 µM
KM20L2 colon
  TGI: > 100 µM
HT29 colon
  TGI: > 100 µM
LXFL 529 NSCLC
  TGI: > 100 µM
OVCAR-3 ovarian
  TGI: > 100 µM
COLO 205 colon
  TGI: > 100 µM
ACHN renal
  TGI: > 100 µM
EKVX NSCLC
  TGI: > 100 µM
SNB-75 CNS
  TGI: > 100 µM
UACC-62 melanoma
  TGI: > 100 µM
XF 498 CNS
  TGI: 75 µM
UACC-257 melanoma
  TGI: > 100 µM
OVCAR-4 ovarian
  TGI: > 100 µM
LOX IMVI melanoma
  TGI: > 100 µM
HCC-2998 colon
  TGI: > 100 µM
RPMI-8226 leukemia
  TGI: 95.7 µM
NCI-H460 lung
  TGI: > 100 µM
DMS 273 small cell lung
  TGI: > 100 µM
SF-268 CNS
  TGI: > 100 µM
NCI-H226 lung
  TGI: > 100 µM
NCI-H23 lung
  TGI: > 100 µM
U251 CNS
  TGI: > 100 µM
SNB-19 CNS
  TGI: > 100 µM
SN12C renal
  TGI: > 100 µM
SK-MEL-2 melanoma
  TGI: > 100 µM

## CC1(C)CCc2cc3c(cc2O1)OC(C)(C)CC3=O
SK-MEL-5 melanoma
  TGI: 52.2 µM
SR leukemia
  TGI: > 100 µM
HCT-15 colon
  TGI: > 100 µM
HOP-92 NSCLC
  TGI: 70.7 µM
SW-620 colon
  TGI: > 100 µM
MOLT-4 leukemia
  TGI: > 100 µM
A549 NSCLC
  TGI: > 100 µM
IGROV1 ovarian
  TGI: > 100 µM
CAKI-1 renal
  TGI: > 100 µM
DLD-1 colon
  TGI: > 100 µM
SF-295 CNS
  TGI: > 100 µM
SF-539 CNS
  TGI: > 100 µM
M14 melanoma
  TGI: > 100 µM
DMS 114 small cell lung
  TGI: > 100 µM
HOP-62 NSCLC
  TGI: > 100 µM
OVCAR-8 ovarian
  TGI: > 100 µM
CCRF-CEM leukemia
  TGI: > 100 µM
HL-60(TB) leukemia
  TGI: > 100 µM
UO-31 renal
  TGI: > 100 µM
M19-MEL melanoma
  TGI: > 100 µM
K-562 leukemia
  TGI: > 100 µM
HCT-116 colon
  TGI: > 100 µM
HT29 colon
  TGI: > 100 µM
LXFL 529 NSCLC
  TGI: > 100 µM
OVCAR-3 ovarian
  TGI: > 100 µM
COLO 205 colon
  TGI: > 100 µM
NCI-H522 lung
  TGI: > 100 µM
ACHN renal
  TGI: > 100 µM
OVCAR-5 ovarian
  TGI: > 100 µM
EKVX NSCLC
  TGI: > 100 µM
SNB-75 CNS
  TGI: > 100 µM
UACC-62 melanoma
  TGI: > 100 µM
XF 498 CNS
  TGI: > 100 µM
OVCAR-4 ovarian
  TGI: > 100 µM
LOX IMVI melanoma
  TGI: > 100 µM
RPMI-8226 leukemia
  TGI: > 100 µM
NCI-H460 lung
  TGI: > 100 µM
DMS 273 small cell lung
  TGI: > 100 µM
SF-268 CNS
  TGI: > 100 µM
NCI-H226 lung
  TGI: > 100 µM
NCI-H23 lung
  TGI: > 100 µM
U251 CNS
  TGI: > 100 µM
SK-OV-3 ovarian
  TGI: > 100 µM
SN12C renal
  TGI: > 100 µM
KM12 colon
  TGI: > 100 µM
SK-MEL-2 melanoma
  TGI: > 100 µM

## CN(C(=N)c1ccccc1)c1ccccc1
786-0 renal
  TGI: > 100 µM
SNB-78 CNS
  TGI: > 100 µM
SK-MEL-5 melanoma
  TGI: > 100 µM
HCT-15 colon
  TGI: > 100 µM
HOP-92 NSCLC
  TGI: > 100 µM
SW-620 colon
  TGI: > 100 µM
MOLT-4 leukemia
  TGI: > 100 µM
A549 NSCLC
  TGI: > 100 µM
IGROV1 ovarian
  TGI: > 100 µM
DLD-1 colon
  TGI: > 100 µM
SF-295 CNS
  TGI: > 100 µM
SF-539 CNS
  TGI: > 100 µM
M14 melanoma
  TGI: > 100 µM
TK-10 renal
  TGI: > 100 µM
OVCAR-8 ovarian
  TGI: > 100 µM
CCRF-CEM leukemia
  TGI: > 100 µM
HL-60(TB) leukemia
  TGI: > 100 µM
UO-31 renal
  TGI: > 100 µM
M19-MEL melanoma
  TGI: > 100 µM
SK-MEL-28 melanoma
  TGI: > 100 µM
K-562 leukemia
  TGI: > 100 µM
HCT-116 colon
  TGI: > 100 µM
KM20L2 colon
  TGI: > 100 µM
HT29 colon
  TGI: > 100 µM
LXFL 529 NSCLC
  TGI: > 100 µM
OVCAR-3 ovarian
  TGI: > 100 µM
COLO 205 colon
  TGI: > 100 µM
HOP-18 NSCLC
  TGI: > 100 µM
EKVX NSCLC
  TGI: > 100 µM
SNB-75 CNS
  TGI: > 100 µM
UACC-62 melanoma
  TGI: > 100 µM
OVCAR-4 ovarian
  TGI: > 100 µM
LOX IMVI melanoma
  TGI: > 100 µM
HCC-2998 colon
  TGI: > 100 µM
RPMI-8226 leukemia
  TGI: > 100 µM
DMS 273 small cell lung
  TGI: > 100 µM
NCI-H226 lung
  TGI: > 100 µM
NCI-H23 lung
  TGI: > 100 µM
U251 CNS
  TGI: > 100 µM
SNB-19 CNS
  TGI: > 100 µM
SK-OV-3 ovarian
  TGI: > 100 µM
SN12C renal
  TGI: > 100 µM
KM12 colon
  TGI: > 100 µM
SK-MEL-2 melanoma
  TGI: > 100 µM
